According to US20130165398A1, “CONCENTRATION-ENHANCING DRINK” (priority 2010, published 2013):
Values joined by “and” are separate entries in the source; they are usually repeats but may differ in a detail not shown here. Identical values can stand only once. “Also recorded” adds a separate entry of the source.

Assays:
[1] = system: 293mitoPARP cells; test: Cell viability by MTT assay, 293mitoPARP cells; format: cell-based, human; conditions: for cell survival with substance as extracellular precursor: NamPRT inhibited by FK866, FIG. 3A
Method: (§4) Inhibitors (2 μm FK866, 2 mM 3-AB, 10 μm NBTI, 2 μm dipyridamol, 2 mM CMP, 25 μm PPADS, 1 mM Ap4A) or metabolites (100 μM NAD^+, 100 μM NAAD, 100 μM NMN, 100 μM NAMN, 100 μM NA, 100 μM NR) were added to the cell culture medium as stated. […] The treatment with inhibitors and metabolites was carried out for 24-48 h before analysis of PAR formation and the viability of the cells (72 h for 293mitoPARP cells, 96 h for HeLa S3 cells and 120 h for HepG2 cells). The viability of the cells was determined by MTT assay.

[2] = system: HeLa S3 cells; test: Cell viability by MTT assay, HeLa S3 cells; format: cell-based, human; conditions: for cell survival with substance as extracellular precursor: FK866, FIG. 3B
Method: as §4

[3] = system: NMNAT1; test: Expression of NMNAT1 after adding EGCG to human cells; format: cell-based; conditions: EGCG added to human cells
[4] = Triple test method: biomedical test battery (breathing rate, skin conductance level, heart rate), index of physiological/mental stress; format: in vivo, human
Method: (§1) Hereinafter the present invention is tested in the context of the Viewpointsystem® vision analyses, using standardized methods of investigation of the Vienna test system and using biomedical studies for stress research. In this method, in the vision laboratory, the triple test method is used with extremely high accuracy for evaluating psychophysical effects up to the degree of attention (cf. EP 1 300 108 A1, WO 2008/151346 A1).
(§2) 12 subjects were subdivided into 3 groups each of 4 subjects:
(§3) (1) drink according to the invention (150 mg of EGCG/20 mg of NR in 10 ml of H2O; “energy” or “energy-drink” group (2) EGCG alone (150 mg of EGCG; “green tea” group) (3) placebo (H2O and mannitol; “placebo” group)
The subjects were then studied systematically with respect to possible effects using the triple test study method, that is vps vision analyses—Vienna test system—biomedical test battery, in a standardized study, in such a manner that objective, statistically significant statements were made possible on the detection of concentration-enhancing activity of the drink according to the invention.
In parallel thereto, the relevant biomedical characteristics such as skin conductivity, pulse were also detected and evaluated. In total, therefore, in the course of the triple-test studies, for all action-relevant evaluation situations, gaze studies were carried out in the gaze laboratory, the gaze behavior and reaction times were analyzed. The effects on information uptake, including information stress and fatigue, were documented using the standardized gaze methods by raster-analysis programs.
After a baseline measurement, the study follows, wherein, inter alia, the following values are recorded: • heart frequency (HF: number of heart beats/minute) • blood volume pulse (BVP: measure of amount of blood which is pumped through the body per heart beat) • skin conductance value (SCL: skin conductance level/conductivity level, tonic measure, SCR: skin conductance response/phasic measure; reaction to individual stimuli)
In the detailed analyses, at the same time the gaze and biomedical data of the study sequences [reaction test (singular stimuli), determination test (multiple optical, acoustic stimuli), film viewing (real sequences from driver viewpoint and film trailers) and semiotics (animal pictures and logos)] were evaluated. Particular attention was paid to the skin conductance level (SCL), the heart rate (pulse; HR) and the breathing rate (AF).
After the physiological parameters were determined, for each section the statistical parameters mean/standard deviation/min/max/range/85% percentile were determined. In addition, the trend line equations were calculated.
For further statistical detailed evaluation, the 85% percentile values were used and the relative differences were compiled using the before/after relationship. This change was totaled as a dimension number.
After categorization of the subjects into 3 comparison groups, the dimension numbers were summed and represent an index of the physiological/mental stress of the subjects. The lower the number, the “more relaxed” the solving of the tasks by the subjects.

[5] = Triple test method: synchronous gaze studies (Viewpointsystem vision analyses: gaze latencies, blinking, pupil adaptation); format: in vivo, human
Method: as §1, §2, §3
Using this test system, the changes in attention, vision behavior, reaction, activation and stress were determined in the three groups. In this process the real directions of gaze and gaze motions of subjects were determined in the course of the Vienna test system—in the reaction and determination test, and also in considering defined situation sequences (standardized preset image and film sequences with events) and for selected specific suitability tests—filmed and recorded from the respective field of view (cf. EP 1 300 108 A1, WO 2008/151346 A1). […]

[6] = system: HepG2 cells; conditions: FK866, FIG. 3C
Method: Inhibitors (2 μm FK866, 2 mM 3-AB, 10 μm NBTI, 2 μm dipyridamol, 2 mM CMP, 25 μm PPADS, 1 mM Ap4A) or metabolites (100 μM NAD^+, 100 μM NAAD, 100 μM NMN, 100 μM NAMN, 100 μM NA, 100 μM NR) were added to the cell culture medium as stated. NR was prepared as described (Dölle et al., Anal, Biochem. 385 (2009), 377-379). The treatment with inhibitors and metabolites was carried out for 24-48 h before analysis of PAR formation and the viability of the cells (72 h for 293mitoPARP cells, 96 h for HeLa S3 cells and 120 h for HepG2 cells). The viability of the cells was determined by MTT assay.

[7] = system: 293mitoPARP cells; test: Mitochondrial NAD+ content by mitoPARP PAR formation, 293mitoPARP cells; format: cell-based, human; conditions: NamPRT inhibited by FK866, FIG. 3A
Method: (§5) Inhibitors (2 μm FK866, 2 mM 3-AB, 10 μm NBTI, 2 μm dipyridamol, 2 mM CMP, 25 μm PPADS, 1 mM Ap4A) or metabolites (100 μM NAD^+, 100 μM NAAD, 100 μM NMN, 100 μM NAMN, 100 μM NA, 100 μM NR) were added to the cell culture medium as stated. […] The treatment with inhibitors and metabolites was carried out for 24-48 h before analysis of PAR formation and the viability of the cells (72 h for 293mitoPARP cells, 96 h for HeLa S3 cells and 120 h for HepG2 cells). The viability of the cells was determined by MTT assay. 293mitoPARP cells were prepared that express a fusion protein (“mitoPARP”), consisting of EGFP and PARP1cd (poly-ADP-ribose polymerase-1) which was targeted to the mitochondrial matrix. With mitochondrial NAD^+ as substrate, these cells generate protein-bound PAR (protein-bound poly-ADP ribose) constitutively, which is visualized immunochemically. Variations in the extent of the PAR detected thereby reflect changes in the mitochondrial NAD^+ content. Likewise, the transient expression of mitoPARP in HepG2 and HeLa S3 cells was used.

[8] = system: mitochondrial NAD^+; test: Mitochondrial NAD+ content by mitoPARP PAR formation, cell line not stated; format: cell-based, human; conditions: for mitochondrial PAR formation from the extracellular precursor on overexpression of NRK1: FIG. 6; for effect of the inhibitor on NR usage: NR as extracellular precursor, FIG. 4B; for function of NMN as extracellular NAD+ precursor in presence of the inhibitor: plasma membrane nucleoside transporter inhibitor added
[9] = system: HeLa S3 cells; test: Mitochondrial NAD+ content by mitoPARP PAR formation, HeLa S3 cells; format: cell-based, human; conditions: FK866, FIG. 3B
Method: as §5

[10] = system: human cells; test: Cell viability by MTT assay, cell line not stated; format: cell-based; conditions: NPP inhibitor added
[11] = CMP competes with NMN for external 5'-nucleotidase
[12] = semiotics (animal pictures and logos), group sum

SMILES: Nc1ccn([C@@H]2O[C@H](COP(=O)(O)O)[C@@H](O)[C@H]2O)c(=O)n1 [CMP]
- cell viability with NMN as precursor on addition of CMP [1, 11]: decreases the cell viability
- cell viability with NMN as precursor on addition of CMP [2, 11]: decreases the cell viability

SMILES: O=C(O[C@@H]1Cc2c(O)cc(O)cc2O[C@@H]1c1cc(O)c(O)c(O)c1)c1cc(O)c(O)c(O)c1 [EGCG, (2R,3R)-2-(3,4,5-trihydroxyphenyl)-3,4-dihydro-1(2H)-benzopyran-3,5,7-triol 3-(3,4,5-trihydroxybenzoate)]
- increase of expression of NMNAT1 [3]: 40%
- AF (breathing rate) dimension number, Total ([4]; RT+DT+Film+Animals, group sum): 14.21
- HR (heart rate) dimension number, Total ([4]; RT+DT+Film+Animals, group sum): 13.90
- SCL (skin conductance level) dimension number, Total ([4]; RT+DT+Film+Animals, group sum): 17.79
- dimension number TOTAL ([4]; T1+T2, individual subject, lower = more relaxed, listed as Green tea group): 10.25 and 12.53 and 12.39 and 10.78
- dimension number TOTAL, group Mean ([4]; T1+T2, mean of 4 subjects): 11.49
- dimension number TOTAL, group Total ([4]; T1+T2, sum of 4 subjects): 45.95
- dimension number T1 ([4]; T1: Vienna test system: reaction test/determination test, individual subject, summed relative before/after differences of 85% percentile values, lower = more relaxed, listed as Green tea group): 4.81 and 5.51 and 6.86 and 5.11
- dimension number T1, group Mean ([4]; T1: reaction test/determination test, mean of 4 subjects): 5.57
- dimension number T1, group Total ([4]; T1: reaction test/determination test, sum of 4 subjects): 22.29
- dimension number T2 ([4]; T2: Viewing film sequences/trailers/logos/animals, individual subject, lower = more relaxed, listed as Green tea group): 5.45 and 7.02 and 5.53 and 5.67
- dimension number T2, group Mean ([4]; T2: film sequences/trailers/logos/animals, mean of 4 subjects): 5.92
- dimension number T2, group Total ([4]; T2: film sequences/trailers/logos/animals, sum of 4 subjects): 23.67
- HR (heart rate) dimension number, DT ([4]; determination test, group sum): 3.44
- SCL (skin conductance level) dimension number, DT ([4]; determination test, group sum): 4.17
- AF (breathing rate) dimension number, DT ([4]; determination test, group sum, listed as Group 3): 3.63 and 3.67
- AF (breathing rate) dimension number, Film ([4]; film viewing, group sum): 3.90
- HR (heart rate) dimension number, Film ([4]; film viewing, group sum): 3.61
- SCL (skin conductance level) dimension number, Film ([4]; film viewing, group sum): 4.90
- AF (breathing rate) dimension number, RT ([4]; reaction test, group sum): 3.58
- HR (heart rate) dimension number, RT ([4]; reaction test, group sum): 3.42
- SCL (skin conductance level) dimension number, RT ([4]; reaction test, group sum): 4.05
- AF (breathing rate) dimension number, Animals [4, 12]: 3.10
- HR (heart rate) dimension number, Animals [4, 12]: 3.49
- SCL (skin conductance level) dimension number, Animals [4, 12]: 4.67
- performance ability for the problem solutions (ability to be stressed) ([4]; sum parameters, tendency, especially in the active test sequences): higher performance ability
- number of blinks ([5]; all test methods, compared with Energy group): markedly lower
- enhancement of gaze latencies in the after state ([5]; real film sequences, before/after): low enhancements

SMILES: O=C(/C=C/c1cccnc1)NCCCCC1CCN(C(=O)c2ccccc2)CC1 [FK866]
- effect of FK866 on cell viability ([1]; FIG. 3A): cell death
- effect of FK866 on cell viability ([2]; FIG. 3B): cell death

SMILES: O=C(O)c1cccnc1 [NA, nicotinic acid]
- generation of mitochondrial NAD+ with substance as extracellular precursor [6]: not able to provide support
- survival/viability of the cell with substance as extracellular precursor [6]: not able to provide support
- cell survival with substance as extracellular precursor [1]: able to restore
- mitochondrial NAD+ content/formation with substance as extracellular precursor [7]: able to restore
- cell survival with substance as extracellular precursor [2]: restoration of survival

SMILES: NC(=O)c1ccc[n+]([C@@H]2O[C@H](COP(=O)([O-])OP(=O)(O)OC[C@H]3O[C@@H](n4cnc5c(N)ncnc54)[C@H](O)[C@@H]3O)[C@@H](O)[C@H]2O)c1 [NAD^+, nicotinamide adenine dinucleotide]
- mitochondrial PAR formation from the extracellular precursor on overexpression of NRK1 [8]: considerably improved

SMILES: O=C(O)c1ccc[n+]([C@@H]2O[C@H](COP(=O)(O)O)[C@@H](O)[C@H]2O)c1 [NAMN, nicotinic acid mononucleotide]
- mitochondrial NAD+ generation of NAMN in presence of dipyridamol and NBTI ([8]; compared with NMN, FIG. 4A): sensitive to these inhibitors, although less strongly
- cell survival with substance as extracellular precursor [1]: able to restore; also recorded: protect
- mitochondrial NAD+ content/formation with substance as extracellular precursor [7]: able to restore; also recorded: support mitochondrial NAD^+ formation
- cell survival with substance as extracellular precursor [2]: restoration of survival; also recorded: protect
- mitochondrial NAD+ formation with substance as extracellular precursor [9]: support mitochondrial NAD^+ formation

SMILES: O=[N+]([O-])c1ccc(CSc2ncnc3c2ncn3[C@@H]2O[C@H](CO)[C@@H](O)[C@H]2O)cc1 [NBTI]
- effect of the inhibitor on NR usage [8]: inhibit the NR usage
- function of NMN as extracellular NAD+ precursor in presence of the inhibitor ([8]; FIG. 4A): lost its function

SMILES: NC(=O)c1ccc[n+]([C@@H]2O[C@H](COP(=O)([O-])O)[C@@H](O)[C@H]2O)c1 [NMN, nicotinamide mononucleotide]
- mitochondrial PAR formation from the extracellular precursor on overexpression of NRK1 [8]: dramatic increase
- cell survival with substance as extracellular precursor [1]: able to restore; also recorded: protect
- mitochondrial NAD+ content/formation with substance as extracellular precursor [7]: able to restore; also recorded: support mitochondrial NAD^+ formation
- cell survival with substance as extracellular precursor [2]: restoration of survival; also recorded: protect
- mitochondrial NAD+ formation with substance as extracellular precursor [9]: support mitochondrial NAD^+ formation

SMILES: Cc1nc(N=Nc2ccc(S(=O)(=O)O)cc2S(=O)(=O)O)c(COP(=O)(O)O)c(C=O)c1O [PPADS]
- restoration of the mitochondrial NAD+ pool with NAD+ as extracellular precursor ([8]; NPP inhibitor added, cell line not stated): prevents the restoration
- survival of the cell with NAD+ as extracellular precursor [10]: prevents the restoration

SMILES: OCCN(CCO)c1nc(N2CCCCC2)c2nc(N(CCO)CCO)nc(N3CCCCC3)c2n1 [dipyridamol]
- effect of the inhibitor on NR usage [8]: inhibit the NR usage
- function of NMN as extracellular NAD+ precursor in presence of the inhibitor ([8]; FIG. 4A): lost its function
